Measurements published in patent US8450266B2 (Ipsen Pharma S.A.S., priority 2008, dated 2013).
Where a SMILES comes first, the peptide text is derived from it. [ ]: non-standard residue; d: D form. The star is where a group is joined. Myristoyl = CCCCCCCCCCCCCC(=O)*; Decanoyl = CCCCCCCCCC(=O)*; Ac6c = NC1(C(=O)O)CCCCC1; Orn = NCCC[C@H](N)C(=O)O; X1 = CCCN1C(=O)CC(*)C1=O

What was measured:
[1] = Human plasma half-life assay (LC-MS); type: in vitro ADME; conditions: incubated at 37° C., read-out: Human Plasma T½ (converted)
Protocol: (§1) B. Human and Rat Plasma Half-Life Assay
(§2) 50 μl, was removed at various times, like at 0, 1, 2, 3, 4, 8, 24, 32, 48, 56, 72 hours, mixed with 5 μL formic acid and 150 μL acetonitrile in a microcentrifuge tube, vertexed, and centrifuged for 10 minutes at 10K rpm. The supernatant was transferred to an injection vial and analyzed by LC-MS. The LC-MS system consisted of an API4000 mass spectrometer with an ESI probe. Positive ion mode and full scan detection were used. HPLC separation was carried out on a Luna 3μ C8 (2), 2×30 mm column with a gradient from 90% A to 90% B in 10 minutes at a flow rate of 0.3 ml/min. Buffer A was 1% formic acid in water and buffer B was 1% formic acid acetonitrile.

[2] = Rat plasma half-life assay (LC-MS); type: in vitro ADME; conditions: incubated at 37° C., read-out: Rat Plasma T½ (converted)
Protocol: as §1, §2

With CCCN1C(=O)CC(SC[C@H](NC(=O)[C@H](CCCCN)NC(=O)[C@H](CCC(N)=O)NC(=O)[C@H](C)NC(=O)[C@H](CC(C)C)NC(=O)[C@H](CC(C)C)NC(=O)[C@H](Cc2c[nH]c3ccccc23)NC(=O)[C@H](CC(N)=O)NC(=O)[C@@H](NC(=O)[C@H](Cc2ccccc2)NC(=O)[C@H](CC(=O)O)NC(=O)[C@H](CCC(N)=O)NC(=O)[C@H](CCC(N)=O)NC(=O)[C@H](Cc2c[nH]cn2)NC(=O)[C@@H](NC(=O)[C@H](CCCCN)NC(=O)[C@H](CC(=O)O)NC(=O)[C@H](CCSC)NC(=O)[C@H](C)NC(=O)[C@@H](NC(=O)[C@H](CO)NC(=O)[C@H](Cc2ccc(O)cc2)NC(=O)[C@H](CC(=O)O)NC(=O)[C@H](CO)NC(=O)C2(NC(C)=O)CCCCC2)[C@@H](C)CC)[C@@H](C)CC)C(C)C)C(=O)N[C@@H](CCCCN)C(=O)N[C@@H](CCCCN)C(=O)N[C@@H](CC(N)=O)C(=O)N[C@@H](CC(=O)O)C(=O)N[C@@H](Cc2c[nH]c3ccccc23)C(=O)N[C@@H](CCCCN)C(=O)N[C@@H](Cc2c[nH]cn2)C(=O)N[C@@H](CC(N)=O)C(=O)N[C@H](C(=O)N[C@H](C(=O)N[C@@H](CCC(N)=O)C(=O)O)[C@@H](C)O)[C@@H](C)CC)C1=O (stereo partly shown) [Example 10, [Ac-A6c^7, Cys(Psu)^31]hGIP(7-42)-OH] (Ac-[Ac6c]SDYSIAMDKIHQQDFVNWLLAQKC(X1)KKNDWKHNITQ-OH) as the compound, how does the half-life at 0.1 mg/mL [1] read?
The half-life at 0.1 mg/mL was 8 h.

What about the half-life at 0.1 mg/mL [2] of the same compound?
The half-life at 0.1 mg/mL was 2.6 h.

With CCCCCCCCCCCCCC(=O)NCCC[C@H](NC(=O)[C@H](CCCCN)NC(=O)[C@H](CCC(N)=O)NC(=O)[C@H](C)NC(=O)[C@H](CC(C)C)NC(=O)[C@H](CC(C)C)NC(=O)[C@H](Cc1c[nH]c2ccccc12)NC(=O)[C@H](CC(N)=O)NC(=O)[C@@H](NC(=O)[C@H](Cc1ccccc1)NC(=O)[C@H](CC(=O)O)NC(=O)[C@H](CCC(N)=O)NC(=O)[C@H](CCC(N)=O)NC(=O)[C@H](Cc1c[nH]cn1)NC(=O)[C@@H](NC(=O)[C@H](CCCCN)NC(=O)[C@H](CC(=O)O)NC(=O)[C@H](CCSC)NC(=O)[C@H](C)NC(=O)[C@@H](NC(=O)[C@H](CO)NC(=O)[C@H](Cc1ccc(O)cc1)NC(=O)[C@H](CC(=O)O)NC(=O)[C@H](CO)NC(=O)C1(NC(C)=O)CCCCC1)[C@@H](C)CC)[C@@H](C)CC)C(C)C)C(=O)N[C@@H](CCCCN)C(=O)N[C@@H](CCCCN)C(=O)N[C@@H](CC(N)=O)C(=O)N[C@@H](CC(=O)O)C(=O)N[C@@H](Cc1c[nH]c2ccccc12)C(=O)N[C@@H](CCCCN)C(=O)N[C@@H](Cc1c[nH]cn1)C(=O)N[C@@H](CC(N)=O)C(=O)N[C@H](C(=O)N[C@H](C(=O)N[C@@H](CCC(N)=O)C(=O)O)[C@@H](C)O)[C@@H](C)CC [Example 12, [Ac-A6c^7, Orn^31(N-C(O)-(CH2)12-CH3)]hGIP(7-42)-OH] (Ac-[Ac6c]SDYSIAMDKIHQQDFVNWLLAQK[Orn](Myristoyl)KKNDWKHNITQ-OH) as the compound, how does the half-life at 0.1 mg/mL [1] read?
The half-life at 0.1 mg/mL was 7.3 h.

And the half-life at 0.1 mg/mL [2]?
Its half-life at 0.1 mg/mL is greater than 72 h.

What does the source list for CCCCCCCCCC(=O)NCCC[C@H](NC(=O)[C@H](CCCCN)NC(=O)[C@H](CCC(N)=O)NC(=O)[C@H](C)NC(=O)[C@H](CC(C)C)NC(=O)[C@H](CC(C)C)NC(=O)[C@H](Cc1c[nH]c2ccccc12)NC(=O)[C@H](CC(N)=O)NC(=O)[C@@H](NC(=O)[C@H](Cc1ccccc1)NC(=O)[C@H](CC(=O)O)NC(=O)[C@H](CCC(N)=O)NC(=O)[C@H](CCC(N)=O)NC(=O)[C@H](Cc1c[nH]cn1)NC(=O)[C@@H](NC(=O)[C@H](CCCCN)NC(=O)[C@H](CC(=O)O)NC(=O)[C@H](CCSC)NC(=O)[C@H](C)NC(=O)[C@@H](NC(=O)[C@H](CO)NC(=O)[C@H](Cc1ccc(O)cc1)NC(=O)[C@H](CC(=O)O)NC(=O)[C@H](CO)NC(=O)C1(NC(C)=O)CCCCC1)[C@@H](C)CC)[C@@H](C)CC)C(C)C)C(=O)N[C@@H](CCCCN)C(=O)N[C@@H](CCCCN)C(=O)N[C@@H](CC(N)=O)C(=O)N[C@@H](CC(=O)O)C(=O)N[C@@H](Cc1c[nH]c2ccccc12)C(=O)N[C@@H](CCCCN)C(=O)N[C@@H](Cc1c[nH]cn1)C(=O)N[C@@H](CC(N)=O)C(=O)N[C@H](C(=O)N[C@H](C(=O)N[C@@H](CCC(N)=O)C(=O)O)[C@@H](C)O)[C@@H](C)CC [Example 13, [Ac-A6c^7, Orn^31(N-C(O)-(CH2)8-CH3)]hGIP(7-42)-OH] (Ac-[Ac6c]SDYSIAMDKIHQQDFVNWLLAQK[Orn](Decanoyl)KKNDWKHNITQ-OH)?
half-life at 0.1 mg/ml [1]: 17.8 h; half-life at 0.1 mg/ml [2]: 19 h

With CCCCCCCCCC(=O)NCCC[C@H](NC(=O)[C@H](CCCCN)NC(=O)[C@H](CCC(N)=O)NC(=O)[C@H](C)NC(=O)[C@H](CC(C)C)NC(=O)[C@H](CC(C)C)NC(=O)[C@H](Cc1c[nH]c2ccccc12)NC(=O)[C@H](CC(N)=O)NC(=O)[C@@H](NC(=O)[C@H](Cc1ccccc1)NC(=O)[C@H](CC(=O)O)NC(=O)[C@H](CCC(N)=O)NC(=O)[C@H](CCC(N)=O)NC(=O)[C@H](Cc1c[nH]cn1)NC(=O)[C@@H](NC(=O)[C@H](CCCCN)NC(=O)[C@H](CC(=O)O)NC(=O)[C@H](CCSC)NC(=O)[C@H](C)NC(=O)[C@@H](NC(=O)[C@H](CO)NC(=O)[C@H](Cc1ccc(O)cc1)NC(=O)[C@H](CC(=O)O)NC(=O)[C@H](CO)NC(=O)C1(N)CCCCC1)[C@@H](C)CC)[C@@H](C)CC)C(C)C)C(=O)N[C@@H](CCCCN)C(=O)N[C@@H](CCCCN)C(=O)N[C@@H](CC(N)=O)C(=O)N[C@@H](CC(=O)O)C(=O)N[C@@H](Cc1c[nH]c2ccccc12)C(=O)N[C@@H](CCCCN)C(=O)N[C@@H](Cc1c[nH]cn1)C(=O)N[C@@H](CC(N)=O)C(=O)N[C@H](C(=O)N[C@H](C(=O)N[C@@H](CCC(N)=O)C(=O)O)[C@@H](C)O)[C@@H](C)CC [Example 14, [A6c^7, Orn^31(N-C(O)-(CH2)8-CH3)]hGIP(7-42)-OH] (H-[Ac6c]SDYSIAMDKIHQQDFVNWLLAQK[Orn](Decanoyl)KKNDWKHNITQ-OH) as the compound, how does the half-life at 0.1 mg/ml [1] read?
The half-life at 0.1 mg/ml was 4.1 h.

And the half-life at 0.1 mg/ml [2]?
The half-life at 0.1 mg/ml was 15.3 h.

Which half-life at 0.1 mg/ml [1] does the source give for CCCCCCCCCC(=O)NCCC[C@H](NC(=O)[C@H](CCCCN)NC(=O)[C@H](CCC(N)=O)NC(=O)[C@H](C)NC(=O)[C@H](CC(C)C)NC(=O)[C@H](CC(C)C)NC(=O)[C@H](Cc1c[nH]c2ccccc12)NC(=O)[C@H](CC(N)=O)NC(=O)[C@@H](NC(=O)[C@H](Cc1ccccc1)NC(=O)[C@H](CC(=O)O)NC(=O)[C@H](CCC(N)=O)NC(=O)[C@H](CCC(N)=O)NC(=O)[C@H](Cc1c[nH]cn1)NC(=O)[C@@H](NC(=O)[C@H](CCCCN)NC(=O)[C@H](CC(=O)O)NC(=O)[C@H](CCSC)NC(=O)[C@H](C)NC(=O)[C@@H](NC(=O)[C@H](CO)NC(=O)[C@H](Cc1ccc(O)cc1)NC(=O)[C@H](CC(=O)O)NC(=O)[C@H](CO)NC(=O)C1(NC(=O)CCCCCCCCC)CCCCC1)[C@@H](C)CC)[C@@H](C)CC)C(C)C)C(=O)N[C@@H](CCCCN)C(=O)N[C@@H](CCCCN)C(=O)N[C@@H](CC(N)=O)C(=O)N[C@@H](CC(=O)O)C(=O)N[C@@H](Cc1c[nH]c2ccccc12)C(=O)N[C@@H](CCCCN)C(=O)N[C@@H](Cc1c[nH]cn1)C(=O)N[C@@H](CC(N)=O)C(=O)N[C@H](C(=O)N[C@H](C(=O)N[C@@H](CCC(N)=O)C(=O)O)[C@@H](C)O)[C@@H](C)CC [Example 15, [CH3-(CH2)8-C(O)-A6c^7, Orn^31(N-C(O)-(CH2)8-CH3)]hGIP(7-42)-OH] (Decanoyl-[Ac6c]SDYSIAMDKIHQQDFVNWLLAQK[Orn](Decanoyl)KKNDWKHNITQ-OH) here?
The half-life at 0.1 mg/ml was 5.2 h.

What about the half-life at 0.1 mg/ml [2] of the same compound?
The half-life at 0.1 mg/ml was greater than 72 h.
